Reference: patent US10865191B2, “Heterocyclic compounds useful as modulators of TNF alpha” (BRISTOL-MYERS SQUIBB COMPANY, priority 2015, dated 2020)
Read-outs that look alike come from different tables or passages of the source.

Target: TNFα (Homo sapiens, UniProt P01375)
Experiment: TNF induced HEK-Blue assay (NF-kB-driven secreted alkaline phosphatase reporter)
Format: cell-based
Details: TNFα 0.5 ng/mL, HEK-Blue-CD40L cells, 18 h
Summary of the method: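 HEK-Blue-CD40L cells (NF-kB-driven SEAP reporter), 20,000/well, added after 30 min pre-incubation of compound (0.004–25 μM final) with TNFα 0.5 ng/mL final at 37 °C; 18 h incubation. SEAP read with QUANTI-Blue at 620 nm; IC50 from 4-parameter logistic fit, normalized to unstimulated and stimulated DMSO controls.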

[1] = read-out: TNF induced HEK-Blue assay IC50 value
[2] = TNF induced HEK-Blue assay IC50 value

Sequence of TNFα (P01375 77-233 limits assumed): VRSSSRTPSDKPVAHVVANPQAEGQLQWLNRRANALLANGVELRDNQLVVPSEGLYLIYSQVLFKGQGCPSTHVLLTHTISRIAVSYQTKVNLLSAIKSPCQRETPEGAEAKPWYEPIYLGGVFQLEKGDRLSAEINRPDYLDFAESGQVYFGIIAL

Row | SMILES | IC50 [1] [nM] | IC50 [2] [nM]
1 | Cc1ccc(C)c(Nc2c(C)c(C)nc3ccc(-c4cnc(C(C)(C)O)nc4)cc23)c1 [Example 184, 2-(5-(4-((2,5-dimethylphenyl)amino)-2,3-dimethylquinolin-6-yl)pyrimidin-2-yl)propan-2-ol] | < 1000 | –
2 | CCCC(C)C(=O)c1c(Cl)c(C)nc2ccc(-c3cnc(C(C)(C)O)nc3)cc12 (racemic) [Example 356, ± 1-(3-Chloro-6-(2-(2-hydroxypropan-2-yl)pyrimidin-5-yl)-2-methylquinolin-4-yl)-2-methylpentan-1-one] | 10000 to 25000 | –
3 | Fc1ccc(Br)cc1CNc1c(Cl)cnc2ccccc12 [Example 516, N-(5-bromo-2-fluorobenzyl)-3-chloroquinolin-4-amine] | 10000 to 25000 | –
4 | COC(=O)N1CCC[C@H]([C@H](C)Nc2c(Cl)cnc3ccc(-c4cnc(C(C)(C)O)nc4)cc23)C1 [Example 354, (S)-methyl 3-((S)-1-((3-chloro-6-(2-(2-hydroxypropan-2-yl)pyrimidin-5-yl)quinolin-4-yl)amino)ethyl)piperidine-1-carboxylate] | < 1000 | –
5 | CNC(=O)c1ccc(-c2ccc3nc(C)c(Cl)c(Nc4cc(C)ccc4C)c3c2)cn1 [Example 8, 5-(3-chloro-4-((2,5-dimethylphenyl)amino)-2-methylquinolin-6-yl)-N-methylpicolinamide] | < 1000 | –
6 | C[C@@H](Nc1c(Cl)cnc2ccc(-c3cnc(C(C)(C)O)nc3)cc12)c1cc(C#Cc2ccccc2)ccc1F [Example 411, (R)-2-(5-(3-chloro-4-((1-(2-fluoro-5-(phenylethynyl)phenyl)ethyl)amino)quinolin-6-yl)pyrimidin-2-yl)propan-2-ol] | 1000 to 10000 | –
7 | CC(Nc1c(Cl)cnc2cc(F)c(-c3cnc(N4CCN(C(=O)CCC(=O)O)CC4)nc3)cc12)c1ccccc1F (single isomer, unassigned) [Example 602, 4-(4-(5-(3-chloro-7-fluoro-4-((1-(2-fluorophenyl)ethyl)amino)quinolin-6-yl)pyrimidin-2-yl)piperazin-1-yl)-4-oxobutanoic acid] | < 1000 | –
8 | COc1cc(-c2ccc(F)c([C@@H](C)Nc3c(Cl)cnc4ccccc34)c2)c(F)cn1 [Example 527, (R)-3-chloro-N-(1-(2-fluoro-5-(5-fluoro-2-methoxypyridin-4-yl)phenyl)ethyl)quinolin-4-amine] | 1000 to 10000 | –
9 | CC(Nc1c(Cl)cnc2ccc(-c3cnc(C(C)(C)O)nc3)cc12)[C@@H]1CCCNC1 (mixture of isomers) [Example 98, (R)-2-(5-(3-chloro-4-((1-(piperidin-3-yl)ethyl)amino)quinolin-6-yl)pyrimidin-2-yl)propan-2-ol] | 10000 to 25000 | –
10 | C[C@H](Nc1c(Cl)cnc2ccc(-c3cnc(C(C)(C)O)nc3)cc12)C1CCCCC1 [Example 59, (S)-2-(5-(3-chloro-4-((1-cyclohexylethyl)amino)quinolin-6-yl)pyrimidin-2-yl)propan-2-ol] | 10000 to 25000 | –
11 | C[C@@H](Nc1c(Cl)cnc2cc(F)c(-c3cnc(C(C)(C)O)nc3)cc12)c1cc(C#N)ccc1F [Example 379, (R)-3-(1-((3-chloro-7-fluoro-6-(2-(2-hydroxypropan-2-yl)pyrimidin-5-yl)quinolin-4-yl)amino)ethyl)-4-fluorobenzonitrile] | < 1000 | –
12 | CC(Nc1c(F)cnc2ccc(-c3cnc(C(C)(C)O)nc3)cc12)c1ccccc1F (racemic) [Example 156, 2-(5-(3-fluoro-4-((1-(2-fluorophenyl)ethyl)amino)quinolin-6-yl)pyrimidin-2-yl) propan-2-ol] | 1000 to 10000 | –
13 | C[C@@H](Nc1c(Cl)cnc2ccc(-c3ccc(N4CCN(CC(=O)O)C(=O)C4)nc3)cc12)c1ccccc1F [Example 81, (R)-2-(4-(5-(3-chloro-4-((1-(2-fluorophenyl)ethyl)amino)quinolin-6-yl)pyridin-2-yl)-2-oxopiperazin-1-yl)acetic acid] | 1000 to 10000 | –
14 | CC(=O)NC1(c2ccc(-c3ccc4ncc(Cl)c(N[C@H](C)c5ccccc5F)c4c3)cc2)CCC1 [Example 113, (R)—N-(1-(4-(3-chloro-4-((1-(2-fluorophenyl)ethyl)amino)quinolin-6-yl)phenyl)cyclobutyl)acetamide] | 10000 to 25000 | –
15 | Cc1nc2ccc(-c3cnc(N4CCS(=O)(=O)CC4)nc3)cc2c(NC(C)c2ccccc2F)c1Cl (racemic) [Example 310, 4-(5-(3-chloro-4-((1-(2-fluorophenyl)ethyl)amino)-2-methylquinolin-6-yl)pyrimidin-2-yl)thiomorpholine 1,1-dioxide] | < 1000 | –
16 | C[C@@H](Nc1c(Cl)cnc2ccc(-c3cnc(C(C)(C)O)nc3)cc12)c1cc(C2=CCNCC2)ccc1F [Example 338, (R)-2-(5-(3-chloro-4-((1-(2-fluoro-5-(1,2,3,6-tetrahydropyridin-4-yl)phenyl)ethyl)amino)quinolin-6-yl)pyrimidin-2-yl)propan-2-ol] | < 1000 | –
17 | CC(Nc1c(Cl)cnc2cc(F)c(-c3cnc(C4(O)CCS(=O)(=O)CC4)nc3)cc12)c1ccccc1F (centres unmarked) [Example 289, 4-(5-(3-chloro-7-fluoro-4-((1-(2-fluorophenyl)ethyl)amino)quinolin-6-yl)pyrimidin-2-yl)-4-hydroxytetrahydro-2H-thiopyran 1,1-dioxide] | < 1000 | –
18 | Cc1nc2ccc(-c3cnc(C(C)(C)O)nc3)cc2c(N[C@@H](c2cc(N3CCNC3=O)ccc2F)C(F)F)c1Cl [Example 372, (S)-1-(3-(1-((3-chloro-6-(2-(2-hydroxypropan-2-yl)pyrimidin-5-yl)-2-methylquinolin-4-yl)amino)-2,2-difluoroethyl)-4-fluorophenyl) imidazolidin-2-one] | < 1000 | –
19 | CC(Nc1c(Cl)cnc2cc(F)c(-c3cnc(C(O)CN4CCOCC4)cn3)cc12)c1ccccc1F (centres unmarked) [Example 273, 1-(5-(3-chloro-7-fluoro-4-((1-(2-fluorophenyl)ethyl)amino)quinolin-6-yl)pyrazin-2-yl)-2-morpholinoethan-1-ol] | < 1000 | –
20 | CC(C)(O)c1ncc(-c2cc3c(NC4(c5ccccc5F)CCC4)c(Cl)cnc3cc2F)cn1 [Example 609, 2-(5-(3-chloro-7-fluoro-4-((1-(2-fluorophenyl)cyclobutyl)amino)quinolin-6-yl)pyrimidin-2-yl)propan-2-ol] | 1000 to 10000 | –
21 | Cc1nc2cc(F)c(-c3cnc(C(C)(C)O)nc3)nc2c(N[C@H](C)c2cc(C(=O)O)ccc2F)c1Cl [Example 582, (R)-3-(1-((3-chloro-7-fluoro-6-(2-(2-hydroxypropan-2-yl)pyrimidin-5-yl)-2-methyl-1,5-naphthyridin-4-yl)amino)ethyl)-4-fluorobenzoic acid] | 10000 to 25000 | –
22 | C[C@@H](Nc1c(Cl)cnc2ccc(-c3cnc(C(C)(C)O)nc3)cc12)c1cc(-c2cnn(CC(C)(C)O)c2)ccc1F [Example 349, (R)-1-(4-(3-(1-((3-chloro-6-(2-(2-hydroxypropan-2-yl)pyrimidin-5-yl)quinolin-4-yl)amino)ethyl)-4-fluorophenyl)-1H-pyrazol-1-yl)-2-methylpropan-2-ol] | < 1000 | –

Next, values leading:

Row | IC50 [1] [nM] | IC50 [2] [nM] | SMILES
23 | – | < 1000 | C[C@@H](Nc1c(Cl)cnc2ccc(-c3ccc(S(C)(=O)=O)nc3)cc12)c1ccccc1F [Example 221, (R)-3-chloro-N-(1-(2-fluorophenyl)ethyl)-6-(6-(methylsulfonyl)pyridin-3-yl)quinolin-4-amine]
24 | 10000 to 25000 | – | CC(Nc1c(Cl)cnc2ccc(-c3ccc(C(C)(C)O)cc3)cc12)c1nccn1C (racemic) [Example 201, 2-(4-(3-chloro-4-((1-(1-methyl-1H-imidazol-2-yl)ethyl)amino)quinolin-6-yl)phenyl)propan-2-ol]
25 | < 1000 | – | CC(Nc1c(Cl)cnc2ccc(-c3ccc(C(C)(C)O)cc3)cc12)c1ccsc1 (racemic) [Example 196, 2-(4-(3-chloro-4-((1-(thiophen-3-yl)ethyl)amino)quinolin-6-yl)phenyl)propan-2-ol]
26 | 1000 to 10000 | – | CC(=O)NC(C)(C)c1ccc(-c2ccc3ncc(Cl)c(NC(C)c4ccccc4F)c3c2)cc1 (centres unmarked) [Example 592, N-(2-(4-(3-chloro-4-((1-(2-fluorophenyl)ethyl)amino)quinolin-6-yl)phenyl)propan-2-yl)acetamide]
27 | < 1000 | – | CCC(Nc1c(Cl)cnc2ccc(-c3ccc(C(C)(C)O)cc3)cc12)c1nc(C(N)=O)ccc1F (racemic) [Example 24, 6-(1-((3-chloro-6-(4-(2-hydroxypropan-2-yl)phenyl)quinolin-4-yl)amino)propyl)-5-fluoropicolinamide]
28 | – | 10000 to 25000 | CC(Nc1c(Cl)cnc2ccc(-c3cnc(C(C)(C)O)nc3)cc12)c1ccc(F)cc1 (racemic) [Example 157, 2-(5-(3-chloro-4-((1-(4-fluorophenyl)ethyl)amino)quinolin-6-yl)pyrimidin-2-yl)propan-2-ol]
29 | < 1000 | – | Cc1nc2ccc(-c3ccc(C(C)(C)O)cc3)cc2c(NC(C)c2ccccc2F)c1Cl (racemic) [Example 308, 2-(4-(3-chloro-4-((1-(2-fluorophenyl)ethyl)amino)-2-methylquinolin-6-yl)phenyl) propan-2-ol]
30 | < 1000 | – | CC(C)(O)c1ncc(-c2ccc3ncc(Cl)c(NC(c4ccccc4)C(F)F)c3c2)cn1 (racemic) [Example 57, 2-(5-(3-chloro-4-((2,2-difluoro-1-phenylethyl)amino)quinolin-6-yl)pyrimidin-2-yl)propan-2-ol]
31 | < 1000 | – | C[C@@H](Nc1c(Cl)cnc2ccc(-c3cnc(C(C)(C)O)nc3)cc12)c1cc(-c2cncs2)ccc1F [Example 347, (R)-2-(5-(3-chloro-4-((1-(2-fluoro-5-(thiazol-5-yl)phenyl)ethyl)amino)quinolin-6-yl)pyrimidin-2-yl)propan-2-ol]
32 | < 1000 | – | CC(Nc1c(Cl)cnc2ccc(-c3ccc(C(C)(C)O)cc3)cc12)c1ncco1 (racemic) [Example 179, 2-(4-(3-chloro-4-((1-(oxazol-2-yl)ethyl)amino)quinolin-6-yl)phenyl)propan-2-ol]
